The values that follow come from article PMC10539800, “Small-molecule inhibitors of the PDZ domain of Dishevelled proteins interrupt Wnt signalling” (Magnetic resonance, 2021).

One assay concerns the target T1, Dvl-1 PDZ (Homo sapiens, UniProt O14640, C338S/V250I).
T1 sequence (O14640 245-338 V250I/C338S): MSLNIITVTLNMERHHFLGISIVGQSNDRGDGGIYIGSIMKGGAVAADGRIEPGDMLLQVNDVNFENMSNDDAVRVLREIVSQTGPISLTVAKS
As to conditions: for T Δ S Dvl-1 PDZ / Δ G Dvl-1 PDZ / Δ H Dvl-1 PDZ: ITC.

Assay [1] relates to canonical Wnt signalling (β-catenin/TCF-dependent GFP) in HEK293 reporter cell line. Nature of the assay: TOP-GFP reporter assay (Wnt3a-induced). As to conditions: Homo sapiens, 24 h, read-out: IC 50 Wnt3a-induced Wnt activation (TOP-GFP). It is filed as cell-based. The text has this: Taking advantage of a lentivirus that encodes GFP in a β -catenin/TCF-dependent fashion (TOP-GFP, SABiosciences), a stable HEK293 reporter cell line was established to evaluate the inhibitory effect of compounds 18, 20, and 21 on canonical Wnt signalling activity. TOP-GFP expression in this cell line was induced by the ligand Wnt3a, which directly activates the Frizzled–Dishevelled complex and protects β -catenin from degradation by the destruction complex (Fig. 2a).
The lentivirus particle (CCS-018L, SABiosciences) encoding GFP under the control of a basal promoter element (TATA box) joined to tandem repeats of a consensus TCF/LEF binding site was transfected into HEK293 cells. Stable cells were selected by puromycin (2 µgmL^-1 ) treatment. Wnt signalling activity indicated by GFP intensity was measured by flow cytometry after 24 h incubation with recombinant mouse Wnt3a (100 ng mL ^-1 ) or GSK3 inhibitor CHIR99021 (3 µM ) in the presence of Dvl inhibitors.

Another assay has as its target T2, Dvl-3 PDZ (Homo sapiens, UniProt Q92997).
T2 construct: spectra of Dvl-3 PDZ in the absence and presence of the compound; His-tag (cleaved yes); made in house
T2 sequence (Q92997 243-336): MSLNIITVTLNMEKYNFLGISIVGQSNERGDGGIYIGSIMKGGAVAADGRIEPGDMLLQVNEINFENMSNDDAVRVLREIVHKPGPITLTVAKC
Description: Binding constant by isothermal titration calorimetry (ITC). The following applies: for T Δ S Dvl-3 PDZ / Δ G Dvl-3 PDZ / Δ H Dvl-3 PDZ: ITC; for Kd: by ITC, one-site binding model, 25 °C, read-out: K D Dvl-3 PDZ. On the technique in general: In ITC the heat of successive injections is recorded.

In assay [2] the test system is SW480 cells. Nature of the assay: Trans-well migration assay. It is filed as cell-based. The following applies: 24 h, 50–100 µM. How it is done: (§1) Canonical Wnt signalling contributes to cancer progression by inducing high motility and invasion of cancer cells while retaining the self-renewal property of cancer-initiating cells (Fritzmann et al., 2009; Sack et al., 2011; Vermeulen et al., 2010; Malanchi et al., 2008). […] Compounds 18 and 20 prevented increased cell migration and sphere formation.
Cell motility was assessed using 24-well trans-well assay (pore diameter: 8 µm , Corning). SW480WL cells were seeded in the upper chamber in serum-free DMEM with 0.1 % BSA; 20 % serum was supplemented to medium in the lower chamber. After incubation with Wnt3a in the presence of Dvl inhibitors for 24 h, non-migrant cells were scraped off using a cotton swab; the migrated cells on the filters were stained with DAPI, photographed, and counted.

Assay [3] relates to SW480 cells. Nature of the assay: Colon sphere culture (sphere formation). As to conditions: serum-free non-adherent culture, 10 d; 25–50 µM. In kind it is cell-based. The procedure: as §1
SW480WL cells were trypsinized into single cells, seeded on 24-well cell culture plates, pre-coated with 250 µL poly-HEMA (12 mg mL ^-1 in 95 % ethanol, Sigma) per well, and incubated with Wnt3a in the presence of Dvl inhibitors in the sphere culture medium (F12 : DMEM 1:1 , 1 × B-27 supplement, 20 ng mL ^-1 EGF, 20 ng mL ^-1 FGF, 0.5 % methylcellulose) for 10 d. Numbers of spheres were then counted under the microscope.

Assay [4] concerns Wnt target genes (Axin2, LEF1, Bmp2) in HeLa cells. Description: qRT-PCR of Wnt target genes. In kind it is cell-based. The following applies: HeLa cells treated with Wnt3a, 24 h; 150 µM. An excerpt: (§2) Increased β -catenin protein level is a hallmark of active Wnt signalling (Kishida et al., 1999). Once β -catenin is accumulated in the cytoplasm, it can translocate into the nucleus and activate the transcription of Wnt target genes by interacting with transcription factors of the TCF/LEF family (Fig. 2a) (Behrens et al., 1996). […] Increased mRNA levels of the Wnt target genes Axin2, LEF1, and Bmp2 (Riese et al., 1997; Jho et al., 2002; Lewis et al., 2010) were induced by Wnt3a treatment, as measured by qRT-PCR, and these increases were reduced by compounds 18, 20, and 21 (Fig. 2f).
To measure the Wnt target accumulation at mRNA level, HeLa cells were treated with Wnt3a in the presence of Dvl inhibitors for 24 h. mRNA was extracted according to the standard TRIzol® protocol (Invitrogen) and reverse-transcribed using random primers (Invitrogen) and M-MLV reverse transcriptase (Promega). The qRT-PCR was performed in a iQ5 multi-colour real-time PCR detection system (Bio-Rad) using SYBR® Green (Thermo Scientific) and gene-specific primer pairs of Bmp2, Axin2, LEF1, and β -actin (endogenous control).
For orientation: Real-time PCR tracks product formation cycle by cycle.

For assay [5], the system named is β-catenin protein level in HeLa cells. Description: Western blotting of β-catenin levels. In kind it is cell-based. As to conditions: HeLa cells treated with Wnt3a, 24 h; 150 µM.
Excerpt: as §2
To assess the β -catenin accumulation in HeLa cells, cells were treated with Wnt3a in the presence of Dvl inhibitors for 24 h and lysed in RIPA buffer (50 mM Tris, pH 8.0, 1 % NP-40, 0.5 % deoxycholate, 0.1 % SDS, 150 mM NaCl). Equal amounts of protein were loaded on a SDS-PAGE. Separated proteins were blotted onto PVDF membranes (polyvinylidene fluoride) for immunoblot analysis using anti- β -catenin antibody (610154, BD). HRP-conjugated anti-mouse antibody (715-035-150, Jackson ImmunoResearch Laboratories) was used for secondary detection with Western lightning chemiluminescence reagent plus (PerkinElmer) and Vilber Lourmat imaging system SL-3.
For orientation: Immunoblotting shows a protein as a band on a membrane.

The next assay has as its system Oct4. Description: Oct-luciferase reporter assay. It is filed as cell-based. As to conditions: stimulated by overexpression of Oct4. The procedure: (§3) To further evaluate the specificity of our Dvl inhibitors, the conventional TOPflash (Molenaar et al., 1996) and other luciferase reporter assays were performed.
(§4) Plasmids encoding a firefly luciferase reporter gene under the control of different responsive elements were transfected into HeLa cells with a pRL-SV40 normalization reporter plasmid using the Lipofectamine 2000 (Invitrogen). After desired treatment, cells were harvested in the passive lysis buffer (Promega), and 15 µL cell lysate was transferred to 96-well LumiNunc plates (Thermo Scientific). Firefly luciferase and Renilla luciferase were detected with the D-luciferin buffer (75 mM HEPES, 4 mM MgSO 4 , 20 mM DTT, 100 µM EDTA, 0.5 mM ATP, 135 µM Coenzyme A, and 100 µM D-Luciferin sodium salt; pH 8.0) and the coelenterazine buffer (15 mM Na4PPi, 7.5 mM NaAc, 10 mM CDTA, 400 mM Na 2 SO 4 , 25 µM APMBT, and 1.1 µM coelenterazine; pH 5.0), respectively, using the CentroXS LB960 lumiometer (Berthold Technologies).

The test system of a further assay is Notch signalling. Nature of the assay: Notch-luciferase reporter assay. It is filed as cell-based. As to conditions: stimulated by overexpression of Notch intracellular domain. The procedure: as §3, §4
The next assay concerns NF-κB signalling. Nature of the assay: NF-κB-luciferase reporter assay. In kind it is cell-based. As to conditions: stimulated by recombinant TNFα. The procedure: as §3, §4
Assay [6] relates to Wnt signalling (TOP-luciferase) in HeLa cells. Description: TOPflash luciferase reporter assay. It is filed as cell-based. How it is done:
as §3, §4

For another assay, the target named is Dvl PDZ. The following applies: internal Frizzled sequence; ref Wong et al., 2003; Chandanamali et al., 2009; read-out: K D Dvl PDZ domains; cited from earlier work.

“Also recorded” adds a separate entry of the source.

Description for Dvl-1 PDZ: (§5) Isothermal titration calorimetry (ITC) experiments were performed using a VP-ITC system (MicroCal). Protein in 20 mM HEPES buffer and 50 mM NaCl (pH 7.4) was centrifuged and degassed before the experiment. A 200 µM ligand solution containing 2 % DMSO was injected 30 times in 10 µL aliquots at 120 s intervals with a stirring speed of 1000 rpm into a 1.4 mL sample cell containing the Dvl PDZ domain at a concentration of 20 µM at 25 ^∘ C. Control experiment was initially determined by titrating ligand into buffer at the same conditions. […] Thermodynamic properties and binding constants were determined by fitting the data with a non-linear least-squares routine using a single-site binding model with Origin (OriginLab) for ITC v.7.2 (MicroCal).
Description for Dvl-3 PDZ: as §5

In the case of `Cc1ccc(NS(=O)(=O)c2ccc(CNC(=O)c3n[nH]c4ccccc34)c(Cl)c2)c(C(=O)O)c1` [Compound 18], at Dvl-1 PDZ, the “T Δ S Dvl-1 PDZ” value is -4.7 kcal mol ^-1, the “Δ G Dvl-1 PDZ” value was -7.5 kcal mol ^-1 and the “Δ H Dvl-1 PDZ” value was -12.2 kcal mol ^-1. For the same compound, the “n (stoichiometry) Dvl-1 PDZ” value at Dvl-1 PDZ (ITC one-site fit) is recorded as 1.12. Moreover, the IC50 in assay [1] is 50 to 75 µM. Further, at Dvl-3 PDZ, the “T Δ S Dvl-3 PDZ” value is -1.2 kcal mol ^-1, the “Δ G Dvl-3 PDZ” value is -6.7 kcal mol ^-1, the “Δ H Dvl-3 PDZ” value is -8.0 kcal mol ^-1 and the Kd was found to be 9.4 ± 0.6 µM. The “n (stoichiometry) Dvl-3 PDZ” value at Dvl-3 PDZ (ITC one-site fit) worked out at 1.14. Also, the “migration of SW480 cells enhanced by Wnt3a” value in the assay on SW480 cells [2] is reported as “reduced the migration; also recorded: prevented”. The “sphere formation of SW480 cells enhanced by Wnt3a” value in the assay with SW480 cells [3] was “reduced sphere formation; also recorded: prevented”. In [4], the “transcription of Wnt target genes (Axin2, LEF1, Bmp2)” value (from here on “transcription of Wnt target genes”) was “reduced the transcription”. Further, the “accumulation of β-catenin” value in assay [5] is reported as “inhibited accumulation”.
In the case of `Cc1ccc(NS(=O)(=O)c2ccc(CNC(=O)c3cc(Br)c[nH]3)c(Cl)c2)c(C(=O)O)c1` [Compound 20], at Dvl-1 PDZ, the “T Δ S Dvl-1 PDZ” value is -2.2 kcal mol ^-1, the “Δ G Dvl-1 PDZ” value is on record as -7.2 kcal mol ^-1 and the “Δ H Dvl-1 PDZ” value is -9.4 kcal mol ^-1. Besides, the IC50 in assay [1] lay in the range of 50 to 75 µM. Also, at Dvl-3 PDZ, the “T Δ S Dvl-3 PDZ” value is on record as -3.6 kcal mol ^-1, the “Δ G Dvl-3 PDZ” value is given as -6.8 kcal mol ^-1, the “Δ H Dvl-3 PDZ” value is listed as -10.4 kcal mol ^-1 and the Kd worked out at 9.8 ± 0.3 µM. For the same compound, the “migration of SW480 cells enhanced by Wnt3a” value in the assay with SW480 cells [2] is listed as “reduced the migration; also recorded: prevented”. Moreover, the “effect on Oct-luciferase” value with Oct4 is “no or a mild effect; also recorded: no significant inhibitory effects”. Further, the “sphere formation of SW480 cells enhanced by Wnt3a” value in the assay with SW480 cells [3] is “reduced sphere formation; also recorded: prevented”. Also, the “transcription of Wnt target genes” value in assay [4] is recorded as “reduced the transcription”. In the assay on Notch signalling, the “effect on Notch-luciferase” value is listed as “no or a mild effect; also recorded: no significant inhibitory effects”. Also, the “effect on NF-κB-luciferase” value in the assay on NF-κB signalling is given as “no or a mild effect; also recorded: no significant inhibitory effects”. Besides, in assay [6], the “effect on Chir99021-induced Wnt activation (TOPflash)” value is “no or a mild effect” and the “effect on TOP-luciferase signals stimulated by Wnt3a” value is “specifically inhibited”. The “accumulation of β-catenin” value in assay [5] is “inhibited accumulation”.
`Cc1ccc(NS(=O)(=O)c2ccc(CNC(=O)c3cc(Cl)c[nH]3)c(Cl)c2)c(C(=O)O)c1` [Compound 21]: at Dvl-1 PDZ, the “T Δ S Dvl-1 PDZ” value was -1.5 kcal mol ^-1, the “Δ G Dvl-1 PDZ” value is listed as -7.0 kcal mol ^-1 and the “Δ H Dvl-1 PDZ” value is -8.5 kcal mol ^-1. The IC50 in assay [1] lay in the range of 50 to 75 µM. In addition, at Dvl-3 PDZ, the “T Δ S Dvl-3 PDZ” value is on record as 0.7 kcal mol ^-1, the “Δ G Dvl-3 PDZ” value is reported as -6.8 kcal mol ^-1, the “Δ H Dvl-3 PDZ” value was -5.9 kcal mol ^-1 and the Kd turned out to be 12.5 ± 0.5 µM. In addition, the “transcription of Wnt target genes” value in assay [4] is recorded as “reduced the transcription”. In addition, the “accumulation of β-catenin” value in assay [5] is “inhibited accumulation”.
As to “Frizzled peptide 525(GKTLQSWRRFYH)536: Frizzled peptide with internal sequence KTXXXW recognized by Dvl PDZ domains”, the Kd at Dvl PDZ was about 10 µM.
